Assay results published in PubChem BioAssay (NCI).
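How tested: cells in 96-well plates exposed to compound for 48 hours at five concentrations. TGI denotes the concentration required for complete inhibition of growth.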

Tests used:
Test in all cases: NCI-60 cell line screen, 48 h
[1] = test system: CAKI-1 renal
[2] = test system: OVCAR-4 ovarian
[3] = test system: HCT-116 colon
[4] = test system: SK-MEL-28 melanoma
[5] = test system: 786-0 renal
[6] = test system: SF-295 CNS
[7] = test system: SK-MEL-2 melanoma
[8] = test system: BT-549 breast
[9] = test system: MDA-MB-231 breast
[10] = test system: A549 NSCLC
[11] = test system: KM12 colon
[12] = test system: SK-MEL-5 melanoma
[13] = test system: DU-145 prostate
[14] = test system: UO-31 renal
[15] = test system: SK-OV-3 ovarian
[16] = test system: NCI/ADR-RES ovarian
[17] = test system: SNB-19 CNS
[18] = test system: HOP-62 NSCLC
[19] = test system: SNB-75 CNS

Row | SMILES | TGI [1] [µM] | TGI [2] [µM] | TGI [3] [µM] | TGI [4] [µM] | TGI [5] [µM] | TGI [6] [µM] | TGI [7] [µM] | TGI [8] [µM] | TGI [9] [µM] | TGI [10] [µM] | TGI [11] [µM] | TGI [12] [µM] | TGI [13] [µM] | TGI [14] [µM] | TGI [15] [µM] | TGI [16] [µM] | TGI [17] [µM] | TGI [18] [µM] | TGI [19] [µM]
1 | COc1cc(C2SCC(=O)N2c2cccc(Cl)c2)cc(OC)c1OC (stereo not drawn) | > 100 | > 100 | > 100 | > 100 | > 100 | > 100 | > 100 | > 100 | > 100 | > 100 | > 100 | > 100 | > 100 | > 100 | > 100 | > 100 | > 100 | – | –
2 | CNC(=O)C1(N)c2ccccc2C=Cc2ccccc21 | > 100 | > 100 | > 100 | > 100 | > 100 | > 100 | > 100 | > 100 | > 100 | > 100 | > 100 | > 100 | > 100 | > 100 | > 100 | > 100 | > 100 | > 100 | –
3 | CCOC(=O)/C(C=Nc1c(C)n(C)n(-c2ccccc2)c1=O)=C(/C)O | > 100 | > 100 | > 100 | – | > 100 | > 100 | > 100 | > 100 | > 100 | > 100 | > 100 | > 100 | > 100 | > 100 | > 100 | > 100 | – | – | > 100
4 | COc1cc(/C=C/c2nc(NC(=S)Nc3ccccc3)nnc2C)cc(OC)c1OC | > 100 | 76.4 | 86 | > 100 | > 100 | > 100 | 38.1 | 89 | > 100 | > 100 | 27.6 | 29.1 | > 100 | 67.7 | > 100 | > 100 | > 100 | > 100 | –
5 | CC1=NNC(=O)C1C1CC(c2c[nH]c3ccccc23)=NNC1=O (stereo not drawn) | > 100 | – | > 100 | > 100 | > 100 | > 100 | > 100 | > 100 | > 100 | > 100 | > 100 | > 100 | > 100 | > 100 | > 100 | > 100 | > 100 | > 100 | > 100
6 | O=C(NNCC(O)COc1ccccc1)c1ccccc1 (stereo not drawn) | > 100 | > 100 | > 100 | > 100 | > 100 | > 100 | > 100 | – | > 100 | > 100 | > 100 | > 100 | > 100 | > 100 | > 100 | > 100 | > 100 | > 100 | > 100
7 | O=C1OCC2OC(=O)c3cc(O)c(O)c(O)c3-c3c(O)c(O)c(O)c4c3C(=O)OC(C2OC(=O)c2cc(O)c(O)c(O)c2-c2c1cc(O)c(O)c2O)C1OC(=O)c2c-4c(O)c(O)c(O)c2[C@@H]1C(O)C(O)C(O)C(O)CO (stereo partly drawn) | 26.7 | 41 | 31.3 | > 100 | 34.7 | 43.7 | 48.3 | 55.2 | 30.5 | 43.7 | 52.3 | 28 | 47.5 | 33.8 | 59 | 66.1 | > 100 | 34 | –
